Where two headings read alike, the source gives them in different places.
Tests used:
[1] = test system: NCI-H358 cells (express KRas G12C), Phospho-ERK; assay: Cellular inhibition of KRas G12C: Phospho-ERK in NCI-H358 cells; type: cell-based; conditions: Homo sapiens, pERK(Thr202/Tyr204) normalized with GAPDH, NCI-H358 cells, 3 hours, read-out: IC50
In short: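 IC50 derived by 4-parameter fit of GAPDH-normalized pERK(Thr202/Tyr204) signal, as percent of DMSO control. Signal came from in-cell immunodetection with infrared secondaries after 3 h compound exposure of KRas G12C NCI-H358 cells at 0.5% DMSO.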

[2] = target: KRas G12C (Homo sapiens, UniProt P01116, C118S/C51S/C80L/G12C); assay: KRas G12C Modification Assay (LCMS detection of covalent adduct); type: binding; conditions: normalized percent of control; tested at 5 μM concentration for 3 hours
In short: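 Covalent modification was read by reverse-phase LC/MS of intact protein after compound exposure, each reaction stopped at its time point with 25 mM acetic acid. Unmodified-protein signal, taken as percent of total, was normalised to untreated protein and reported as POC.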

Row | POC [2] | SMILES | IC50 [1] | IC50 ([1]; NCI-H358, 3 h)
1 | C (“C”>50% POC) | C=CC(=O)N1CCN(c2nc(OCCCN3C[C@@H]4C[C@H]3CO4)nc3c2CCN(c2c(C)ccc4[nH]ncc24)C3)CC1 [Example 181, 1-(4-(2-(3-((1 S,4S)-2-oxa-5-azabicyclo[2.2.1]heptan-5-yl)propoxy)-7-(5-methyl-1H-indazol-4-yl)-5,6,7,8-tetrahydropyrido[3,4-d]pyrimidin-4-yl)piperazin-1-yl)prop-2-en-1-one] | > 1000 nM | 
2 | C (“C”>50% POC) | C=CC(=O)N1CCN(c2nc(OCCCO)nc3c2CCN(c2cc(O)cc4ccccc24)C3)CC1 [Example 184, 1-[4-[7-(3-hydroxy-1-naphthyl)-2-(3-hydroxypropoxy)-6,8-dihydro-5H-pyrido[3,4-d]pyrimidin-4-yl]piperazin-1-yl]prop-2-en-1-one] |  | > 1000 nM
3 | B (“B”>25% POC−≤50% POC) | C=CC(=O)N1CCN(c2nc(-c3cccc(CN4CCOCC4)c3)nc3c2CCN(c2cc(O)cc4ccccc24)C3)CC1 [Example 186] | > 1000 nM | 
4 | C (“C”>50% POC) | C=CC(=O)N1CCN(c2nc(OC[C@H]3CCN(C)C3)nc3c2CCN(c2cc(O)cc4ccccc24)C3)CC1 [Example 188, (S)-1-(4-(7-(3-hydroxynaphthalen-1-yl)-2-((1-methylpyrrolidin-3-yl)methoxy)-5,6,7,8-tetrahydropyrido[3,4-d]pyrimidin-4-yl)piperazin-1-yl)prop-2-en-1-one] |  | 0.1 to 1000 nM
5 | C (“C”>50% POC) | C=CC(=O)N1CCN(c2nc(OCC3CCN(Cc4ccccc4)C3)nc3c2CCN(c2cc(O)cc4ccccc24)C3)CC1 (stereo not shown) [Example 189, 1-(4-(2-((1-benzylpyrrolidin-3-yl)methoxy)-7-(3-hydroxynaphthalen-1-yl)-5,6,7,8-tetrahydropyrido[3,4-d]pyrimidin-4-yl)piperazin-1-yl)prop-2-en-1-one] |  | > 1000 nM
6 | C (“C”>50% POC) | C=CC(=O)N1CCN(c2nc(OCC3CCN(C4CC4)C3)nc3c2CCN(c2cc(O)cc4ccccc24)C3)CC1 (stereo not shown) [Example 190, 1-(4-(2-((1-cyclopropylpyrrolidin-3-yl)methoxy)-7-(3-hydroxynaphthalen-1-yl)-5,6,7,8-tetrahydropyrido[3,4-d]pyrimidin-4-yl)piperazin-1-yl)prop-2-en-1-one] |  | 0.1 to 1000 nM
7 | C (“C”>50% POC) | C=CC(=O)N1[C@H](C)CN(c2nc(OCCCN3CCOCC3)nc3c2CCN(c2cc(O)cc4ccccc24)C3)C[C@@H]1C [Example 191, 1-((2S,6R)-4-(7-(3-hydroxynaphthalen-1-yl)-2-(3-morpholinopropoxy)-5,6,7,8-tetrahydropyrido[3,4-d]pyrimidin-4-yl)-2,6-dimethylpiperazin-1-yl)prop-2-en-1-one] | > 1000 nM | 
8 | C (“C”>50% POC) | C=CC(=O)N1CCN(c2nc(OC[C@@H]3CCCN(C)C3)nc3c2CCN(c2cc(O)cc4ccccc24)C3)CC1 [Example 192, (R)-1-(4-(7-(3-hydroxynaphthalen-1-yl)-2-((1-methylpiperidin-3-yl)methoxy)-5,6,7,8-tetrahydropyrido[3,4-d]pyrimidin-4-yl)piperazin-1-yl)prop-2-en-1-one] |  | 0.1 to 1000 nM
9 | C (“C”>50% POC) | C=CC(=O)N1CCN(c2nc(OCC3CN(C)CCO3)nc3c2CCN(c2cc(O)cc4ccccc24)C3)CC1 (stereo not shown) [Example 193, 1-(4-(7-(3-hydroxynaphthalen-1-yl)-2-((4-methylmorpholin-2-yl)methoxy)-5,6,7,8-tetrahydropyrido[3,4-d]pyrimidin-4-yl)piperazin-1-yl)prop-2-en-1-one] |  | 0.1 to 1000 nM
10 | C (“C”>50% POC) | C=CC(=O)N1CCN(c2nc(OCC3COCCN3C)nc3c2CCN(c2cc(O)cc4ccccc24)C3)CC1 (stereo not shown) [Example 194, 1-(4-(7-(3-hydroxynaphthalen-1-yl)-2-((4-methylmorpholin-3-yl)methoxy)-5,6,7,8-tetrahydropyrido[3,4-d]pyrimidin-4-yl)piperazin-1-yl)prop-2-en-1-one] |  | > 1000 nM
11 | C (“C”>50% POC) | C=CC(=O)N1CCN(c2nc(OC[C@H]3CCCCN3C)nc3c2CCN(c2cc(O)cc4ccccc24)C3)CC1 [Example 195, (R)-1-(4-(7-(3-hydroxynaphthalen-1-yl)-2-((1-methylpiperidin-2-yl)methoxy)-5,6,7,8-tetrahydropyrido[3,4-d]pyrimidin-4-yl)piperazin-1-yl)prop-2-en-1-one] |  | > 1000 nM
12 | C (“C”>50% POC) | C=CC(=O)N1CCN(c2nc(OC[C@@H]3CCCCN3C)nc3c2CCN(c2cc(O)cc4ccccc24)C3)CC1 [Example 196, (S)-1-(4-(7-(3-hydroxynaphthalen-1-yl)-2-((1-methylpiperidin-2-yl)methoxy)-5,6,7,8-tetrahydropyrido[3,4-d]pyrimidin-4-yl)piperazin-1-yl)prop-2-en-1-one] |  | 0.1 to 1000 nM
13 | C (“C”>50% POC) | C=CC(=O)N1CCN(c2nc(OC[C@@H]3CCCN3CC)nc3c2CCN(c2cc(O)cc4ccccc24)C3)CC1 [Example 197, (S)-1-(4-(2-((1-ethylpyrrolidin-2-yl)methoxy)-7-(3-hydroxynaphthalen-1-yl)-5,6,7,8-tetrahydropyrido[3,4-d]pyrimidin-4-yl)piperazin-1-yl)prop-2-en-1-one] |  | 0.1 to 1000 nM
14 | C (“C”>50% POC) | C/C=C/C(=O)N1CCN(c2nc(OC[C@@H]3CCCN3C)nc3c2CCN(c2cc(O)cc4ccccc24)C3)CC1 [Example 198, (S,E)-1-(4-(7-(3-hydroxynaphthalen-1-yl)-2-((1-methylpyrrolidin-2-yl)methoxy)-5,6,7,8-tetrahydropyrido[3,4-d]pyrimidin-4-yl)piperazin-1-yl)but-2-en-1-one] |  | > 1000 nM
15 | C (“C”>50% POC) | CN(C)C/C=C/C(=O)N1CCN(c2nc(OC[C@@H]3CCCN3C)nc3c2CCN(c2cc(O)cc4ccccc24)C3)CC1 [Example 199, (S,E)-4-(dimethylamino)-1-(4-(7-(3-hydroxynaphthalen-1-yl)-2-((1-methylpyrrolidin-2-yl)methoxy)-5,6,7,8-tetrahydropyrido[3,4-d]pyrimidin-4-yl)piperazin-1-yl)but-2-en-1-one] |  | > 1000 nM
16 | B (“B”>25% POC−≤50% POC) | C=CC(=O)N1CCN(c2nc(OC[C@@H]3CCCN3C)nc3c2CCN(c2cccc4ccccc24)C3)C[C@H]1C [Example 201, 1-((R)-2-methyl-4-(2-(((S)-1-methylpyrrolidin-2-yl)methoxy)-7-(naphthalen-1-yl)-5,6,7,8-tetrahydropyrido[3,4-d]pyrimidin-4-yl)piperazin-1-yl)prop-2-en-1-one] |  | > 1000 nM
17 | C (“C”>50% POC) | C=CC(=O)N1CCN(c2nc(OC[C@@H]3CCCN3C)nc3c2CCN(c2cc(O)cc4ccccc24)C3)[C@@H](C)C1 [Example 202, 1-((S)-4-(7-(3-hydroxynaphthalen-1-yl)-2-(((S)-1-methylpyrrolidin-2-yl)methoxy)-5,6,7,8-tetrahydropyrido[3,4-d]pyrimidin-4-yl)-3-methylpiperazin-1-yl)prop-2-en-1-one] |  | 0.1 to 1000 nM
18 | C (“C”>50% POC) | C=CC(=O)N1CCN(c2nc(OC[C@H]3CCCN3C)nc3c2CCN(c2cc(O)cc4ccccc24)C3)[C@@H](C)C1 [Example 203, 1-((S)-4-(7-(3-hydroxynaphthalen-1-yl)-2-(((R)-1-methylpyrrolidin-2-yl)methoxy)-5,6,7,8-tetrahydropyrido[3,4-d]pyrimidin-4-yl)-3-methylpiperazin-1-yl)prop-2-en-1-one] |  | 0.1 to 1000 nM
19 | C (“C”>50% POC) | C=CC(=O)N1CCN(c2nc(NC3CCN(C4CC4)CC3)nc3c2CCN(c2cc(O)cc4ccccc24)C3)CC1 [Example 204, 1-(4-(2-((1-cyclopropylpiperidin-4-yl)amino)-7-(3-hydroxynaphthalen-1-yl)-5,6,7,8-tetrahydropyrido[3,4-d]pyrimidin-4-yl)piperazin-1-yl)prop-2-en-1-one] | > 1000 nM | 

Row | SMILES | POC [2] | IC50 [1] | IC50 ([1]; NCI-H358, 3 h)
20 | C=CC(=O)N1CCN(c2nc(OCCCN3CCOCC3)nc3c2CCN(c2c(C(F)(F)F)ccc4[nH]ncc24)C3)CC1 [Example 180, 1-[4-[2-(3-morpholinopropoxy)-7-[5-(trifluoromethyl)-1H-indazol-4-yl]-6,8-dihydro-5H-pyrido[3,4-d]pyrimidin-4-yl]piperazin-1-yl]prop-2-en-1-one] | C (“C”>50% POC) | 0.1 to 1000 nM | 
21 | C=CC(=O)N1CCN(c2nc(OC[C@@H]3CCCN3C)nc3c2CCN(c2cc(O)cc4ccccc24)C3)CC1CC#N (stereo partly drawn) [Example 182, 2-[4-[7-(3-hydroxy-1-naphthyl)-2-[[(2S)-1-methylpyrrolidin-2-yl]methoxy]-6,8-dihydro-5H-pyrido[3,4-d]pyrimidin-4-yl]-1-prop-2-enoyl-piperazin-2-yl]acetonitrile] | C (“C”>50% POC) | 0.1 to 1000 nM | 
22 | C=CC(=O)N1CCN(c2nc(OC[C@H]3CCCN3C)nc3c2CCN(c2cccc4ccccc24)C3)CC1CC#N (stereo partly drawn) [Example 183, 2-[4-[2-[[(2R)-1-methylpyrrolidin-2-yl]methoxy]-7-(1-naphthyl)-6,8-dihydro-5H-pyrido[3,4-d]pyrimidin-4-yl]-1-prop-2-enoyl-piperazin-2-yl]acetonitrile] | C (“C”>50% POC) | 0.1 to 1000 nM | 
23 | C=CC(=O)N1CCN(c2nc(OCCCN3CCOCC3)nc3c2CCN(c2cc(O)cc4cccnc24)C3)CC1 [Example 205, 1-(4-(7-(6-hydroxyquinolin-8-yl)-2-(3-morpholinopropoxy)-5,6,7,8-tetrahydropyrido[3,4-d]pyrimidin-4-yl)piperazin-1-yl)prop-2-en-1-one] | C (“C”>50% POC) | > 1000 nM | 
